Organism: Rattus norvegicus
Test: DrugMatrix - Regimen: Daily Repeat
Assay type: toxicity, organism-based, Sprague-Dawley
Parameters: regimen Daily Repeat, gender Male, age 6-8 weeks
Details: in vivo, sc, route subcutaneous, […]; for ABSOLUTE BASOPHIL / ABSOLUTE EOSINOPHIL / ABSOLUTE LYMPHOCYTE / ABSOLUTE MONOCYTE / ABSOLUTE SEGMENTED NEUTROPHIL / BASOPHIL / EOSINOPHIL / ERYTHROCYTE COUNT / HEMATOCRIT / HEMOGLOBIN / LEUKOCYTE COUNT / LYMPHOCYTE / MEAN CORPUSCULAR HEMOGLOBIN / MEAN CORPUSCULAR HEMOGLOBIN CONCENTRATION / MEAN CORPUSCULAR VOLUME / MONOCYTE / NEUTROPHIL / NUCLEATED RED BLOOD CELLS / PLATELET COUNT: tissue Blood; for ALANINE AMINOTRANSFERASE / ALBUMIN / ALKALINE PHOSPHATASE / ASPARTATE AMINOTRANSFERASE / BLOOD UREA NITROGEN / CARBON DIOXIDE / CHLORIDE / CHOLESTEROL / CREATINE PHOSPHOKINASE / CREATININE / GLUCOSE / LACTATE DEHYDROGENASE / LIPASE / PHOSPHORUS / POTASSIUM / SODIUM / TOTAL BILIRUBIN / TOTAL PROTEIN / URIC ACID: tissue Plasma
[1] = 68 mg/kg, 72 h, dose level High, time 3 day
[2] = 68 mg/kg, 120 h, dose level High, time 5 day
[3] = 72 h, dose 6.8 mg/Kg, dose level Low, time 3 day
[4] = 120 h, dose 6.8 mg/Kg, dose level Low, time 5 day

Oc1cccc2cccnc12 [OXYQUINOLINE]
ABSOLUTE BASOPHIL [1]: 0 CELLS/uL
ABSOLUTE EOSINOPHIL [1]: 246.33 CELLS/uL
ABSOLUTE LYMPHOCYTE [1]: 13064.33 CELLS/uL
ABSOLUTE MONOCYTE [1]: 405.33 CELLS/uL
ABSOLUTE SEGMENTED NEUTROPHIL [1]: 1850.67 CELLS/uL
BASOPHIL [1]: 0%
EOSINOPHIL [1]: 1.67%
ERYTHROCYTE COUNT [1]: 5.38 x10E6/uL
HEMATOCRIT [1]: 34.33%
HEMOGLOBIN [1]: 12.8 G/DL
LEUKOCYTE COUNT [1]: 15.57 x10E3/uL
LYMPHOCYTE [1]: 83.67%
MEAN CORPUSCULAR HEMOGLOBIN [1]: 23.83 pg
MEAN CORPUSCULAR HEMOGLOBIN CONCENTRATION [1]: 37.33 G/DL
MEAN CORPUSCULAR VOLUME [1]: 63.87 fL
MONOCYTE [1]: 2.67%
NEUTROPHIL [1]: 12%
NUCLEATED RED BLOOD CELLS [1]: 0 /100WBC
PLATELET COUNT [1]: 1290 x10E3/uL
ALANINE AMINOTRANSFERASE [1]: 49.33 u/L
ALBUMIN [1]: 3.73 G/DL
ALKALINE PHOSPHATASE [1]: 444 u/L
ASPARTATE AMINOTRANSFERASE [1]: 72 u/L
BLOOD UREA NITROGEN [1]: 18.67 mg/dL
CARBON DIOXIDE [1]: 26 mmol/L
CHLORIDE [1]: 105 MEQ/L
CHOLESTEROL [1]: 65.33 mg/dL
CREATINE PHOSPHOKINASE [1]: 160.33 u/L
CREATININE [1]: 0.13 mg/dL
GLUCOSE [1]: 169 mg/dL
LACTATE DEHYDROGENASE [1]: 87.67 u/L
LIPASE [1]: 8.67 u/L
PHOSPHORUS [1]: 12.4 mg/dL
POTASSIUM [1]: 6.22 MEQ/L
SODIUM [1]: 146.43 MEQ/L
TOTAL BILIRUBIN [1]: 0.2 mg/dL
TOTAL PROTEIN [1]: 5.63 G/DL
URIC ACID [1]: 1.07 mg/dL
ABSOLUTE BASOPHIL [2]: 0 CELLS/uL
ABSOLUTE EOSINOPHIL [2]: 367.33 CELLS/uL
ABSOLUTE LYMPHOCYTE [2]: 11402.67 CELLS/uL
ABSOLUTE MONOCYTE [2]: 397.67 CELLS/uL
ABSOLUTE SEGMENTED NEUTROPHIL [2]: 1465.67 CELLS/uL
BASOPHIL [2]: 0%
EOSINOPHIL [2]: 2.67%
ERYTHROCYTE COUNT [2]: 5.88 x10E6/uL
HEMATOCRIT [2]: 36.73%
HEMOGLOBIN [2]: 13.63 G/DL
LEUKOCYTE COUNT [2]: 13.63 x10E3/uL
LYMPHOCYTE [2]: 83.33%
MEAN CORPUSCULAR HEMOGLOBIN [2]: 23.2 pg
MEAN CORPUSCULAR HEMOGLOBIN CONCENTRATION [2]: 37.13 G/DL
MEAN CORPUSCULAR VOLUME [2]: 62.53 fL
MONOCYTE [2]: 3%
NEUTROPHIL [2]: 11%
NUCLEATED RED BLOOD CELLS [2]: 0 /100WBC
PLATELET COUNT [2]: 1567 x10E3/uL
ALANINE AMINOTRANSFERASE [2]: 37.67 u/L
ALBUMIN [2]: 3.87 G/DL
ALKALINE PHOSPHATASE [2]: 326.67 u/L
ASPARTATE AMINOTRANSFERASE [2]: 67 u/L
BLOOD UREA NITROGEN [2]: 16.67 mg/dL
CARBON DIOXIDE [2]: 25.33 mmol/L
CHLORIDE [2]: 105 MEQ/L
CHOLESTEROL [2]: 75.33 mg/dL
CREATINE PHOSPHOKINASE [2]: 175 u/L
CREATININE [2]: 0.16 mg/dL
GLUCOSE [2]: 162 mg/dL
LACTATE DEHYDROGENASE [2]: 86.67 u/L
LIPASE [2]: 8 u/L
PHOSPHORUS [2]: 13.33 mg/dL
POTASSIUM [2]: 6.17 MEQ/L
SODIUM [2]: 147.4 MEQ/L
TOTAL BILIRUBIN [2]: 0.17 mg/dL
TOTAL PROTEIN [2]: 6.03 G/DL
URIC ACID [2]: 2.03 mg/dL
ABSOLUTE BASOPHIL [3]: 0 CELLS/uL
ABSOLUTE EOSINOPHIL [3]: 0 CELLS/uL
ABSOLUTE LYMPHOCYTE [3]: 14772 CELLS/uL
ABSOLUTE MONOCYTE [3]: 208 CELLS/uL
ABSOLUTE SEGMENTED NEUTROPHIL [3]: 1086.67 CELLS/uL
BASOPHIL [3]: 0%
EOSINOPHIL [3]: 0%
ERYTHROCYTE COUNT [3]: 5.93 x10E6/uL
HEMATOCRIT [3]: 37.03%
HEMOGLOBIN [3]: 13.73 G/DL
LEUKOCYTE COUNT [3]: 16.07 x10E3/uL
LYMPHOCYTE [3]: 91.33%
MEAN CORPUSCULAR HEMOGLOBIN [3]: 23.23 pg
MEAN CORPUSCULAR HEMOGLOBIN CONCENTRATION [3]: 37.07 G/DL
MEAN CORPUSCULAR VOLUME [3]: 62.63 fL
MONOCYTE [3]: 1.33%
NEUTROPHIL [3]: 7.33%
NUCLEATED RED BLOOD CELLS [3]: 0.33 /100WBC
PLATELET COUNT [3]: 1308.67 x10E3/uL
ALANINE AMINOTRANSFERASE [3]: 45.67 u/L
ALBUMIN [3]: 4.3 G/DL
ALKALINE PHOSPHATASE [3]: 363.67 u/L
ASPARTATE AMINOTRANSFERASE [3]: 73.33 u/L
BLOOD UREA NITROGEN [3]: 15 mg/dL
CARBON DIOXIDE [3]: 24.33 mmol/L
CHLORIDE [3]: 103 MEQ/L
CHOLESTEROL [3]: 68.67 mg/dL
CREATINE PHOSPHOKINASE [3]: 130.33 u/L
CREATININE [3]: 0.2 mg/dL
GLUCOSE [3]: 142.67 mg/dL
LACTATE DEHYDROGENASE [3]: 83.33 u/L
LIPASE [3]: 8.67 u/L
PHOSPHORUS [3]: 11.27 mg/dL
POTASSIUM [3]: 6.77 MEQ/L
SODIUM [3]: 146.07 MEQ/L
TOTAL BILIRUBIN [3]: 0.2 mg/dL
TOTAL PROTEIN [3]: 5.57 G/DL
URIC ACID [3]: 1.63 mg/dL
ABSOLUTE BASOPHIL [4]: 0 CELLS/uL
ABSOLUTE EOSINOPHIL [4]: 182.67 CELLS/uL
ABSOLUTE LYMPHOCYTE [4]: 12749.33 CELLS/uL
ABSOLUTE MONOCYTE [4]: 601.33 CELLS/uL
ABSOLUTE SEGMENTED NEUTROPHIL [4]: 1500 CELLS/uL
BASOPHIL [4]: 0%
EOSINOPHIL [4]: 1.33%
ERYTHROCYTE COUNT [4]: 6.16 x10E6/uL
HEMATOCRIT [4]: 37.9%
HEMOGLOBIN [4]: 13.87 G/DL
LEUKOCYTE COUNT [4]: 15.03 x10E3/uL
LYMPHOCYTE [4]: 84.67%
MEAN CORPUSCULAR HEMOGLOBIN [4]: 22.53 pg
MEAN CORPUSCULAR HEMOGLOBIN CONCENTRATION [4]: 36.6 G/DL
MEAN CORPUSCULAR VOLUME [4]: 61.5 fL
MONOCYTE [4]: 4%
NEUTROPHIL [4]: 10%
NUCLEATED RED BLOOD CELLS [4]: 0 /100WBC
PLATELET COUNT [4]: 1278.67 x10E3/uL
ALANINE AMINOTRANSFERASE [4]: 45 u/L
ALBUMIN [4]: 4.2 G/DL
ALKALINE PHOSPHATASE [4]: 341 u/L
ASPARTATE AMINOTRANSFERASE [4]: 77 u/L
BLOOD UREA NITROGEN [4]: 19 mg/dL
CARBON DIOXIDE [4]: 24.33 mmol/L
CHLORIDE [4]: 107 MEQ/L
CHOLESTEROL [4]: 75.33 mg/dL
CREATINE PHOSPHOKINASE [4]: 227.33 u/L
CREATININE [4]: 0.17 mg/dL
GLUCOSE [4]: 154.33 mg/dL
LACTATE DEHYDROGENASE [4]: 324 u/L
LIPASE [4]: 9 u/L
PHOSPHORUS [4]: 12.23 mg/dL
POTASSIUM [4]: 6.39 MEQ/L
SODIUM [4]: 146.97 MEQ/L
TOTAL BILIRUBIN [4]: 0.13 mg/dL
TOTAL PROTEIN [4]: 6.37 G/DL
URIC ACID [4]: 1.5 mg/dL
